Patent publication US5686486A, “4-hydroxy-benzopyran-2-ones and 4-hydroxy-cycloalkyl[b]pyran-2-ones useful to treat retroviral infections” (priority 1995, dated 1997)
Where two headings read alike, the source gives them in different places.

Molecular target: HIV-1 protease (Human immunodeficiency virus type 1 group M subtype B, UniProt P04585)
Assay: biochemical
Settings: for inhibition at 0.123 µM: read-out: HIV-1 Protease % Inhib, dose 0.123 uM; for inhibition at 0.37 µM: read-out: HIV-1 Protease % Inhib, dose 0.370 uM
Method in brief: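 Percent inhibition derived from fluorescent cleavage product separated by filtration after streptavidin-bead capture of intact biotin/FITC substrate. Reaction: enzyme (10 μl, 0.1 μM stock) with substrate (20 μl, 0.2 μM stock) and compound, 1 h at room temperature in dark, pH 5.5 acetate buffer with 1.0 M NaCl and 0.05% NP-40.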

[1] = read-out: HIV-1 Protease % Inhib, dose 1.100 uM
[2] = read-out: HIV-1 Protease % Inhib, dose 3.300 uM
[3] = read-out: HIV-1 Protease % Inhib, dose 10.000 uM
[4] = read-out: HIV-1 Protease % Inhib, dose 30.000 uM
[5] = dose 1.100 uM, read-out: HIV-1 Protease % Inhib
[6] = dose 3.300 uM, read-out: HIV-1 Protease % Inhib
[7] = dose 10.000 uM, read-out: HIV-1 Protease % Inhib
[8] = dose 30.000 uM, read-out: HIV-1 Protease % Inhib

inhibition at 1.1 µM [5] [%] | inhibition at 3.3 µM [6] [%] | inhibition at 10 µM [7] [%] | inhibition at 30 µM [8] [%] | SMILES | inhibition at 0.123 µM [%] | inhibition at 0.37 µM [%] | inhibition at 1.1 µM [1] [%] | inhibition at 3.3 µM [2] [%] | inhibition at 10 µM [3] [%] | inhibition at 30 µM [4] [%]
 |  |  |  | CCCCC(c1cccc(NS(=O)(=O)c2ccc(C#N)cc2)c1)c1c(O)c2c(oc1=O)CCCCCC2 (centres unmarked) [Example 421, Benzenesulfonamide, 4-cyano-N-[3-[1-(5,6,7,8,9,10-hexahydro-4-hydroxy-2-oxo-2H-cycloocta[b]pyran-3-yl)pentyl]phenyl]-] | 93.9 | 104 | 99.1 | 97.9 | 108 | 90
 |  |  |  | CCCCC(c1cccc(NS(=O)(=O)c2ccc(F)cc2)c1)c1c(O)c2c(oc1=O)CCCCCC2 (centres unmarked) [Example 422] | 100 | 95.4 | 96.5 | 103 | 97.6 | 95.2
 |  |  |  | CC(C)CC(c1cccc(NS(=O)(=O)c2ccc(F)cc2)c1)c1c(O)c2c(oc1=O)CCCCCC2 (centres unmarked) [Example 425, Benzenesulfonamide, N-[3-[1-(5,6,7,8,9,10-hexahydro-4-hydroxy-2-oxo-2H-cycloocta[b]pyran-3-yl)-3-methylbutyl]phenyl]-4-fluoro-] | 97.4 | 109 | 101 | 108 | 98.5 | 98.5
 |  |  |  | CC(C)CC(c1cccc(NS(=O)(=O)c2cccc3cccnc23)c1)c1c(O)c2c(oc1=O)CCCCCC2 (centres unmarked) [Example 428, 8-Quinolinesulfonamide, N-[3-[1-(5,6,7,8,9,10-hexahydro4-hydroxy-2-oxo-2H-cycloocta[b]pyran-3-yl)-3-methylbutyl]phenyl]-] | 86.3 | 84 | 86.5 | 87.1 | 87.9 | 84.2
 |  |  |  | CC(C)CC(c1cccc(NS(=O)(=O)c2cccnc2)c1)c1c(O)c2c(oc1=O)CCCCCC2 (centres unmarked) [Example 429, 3-Pyridinesulfonamide, N-[3-[1-(5,6,7,8,9,10-hexahydro4-hydroxy-2-oxo-2H-cycloocta[b]pyran-3-yl)-3-methylbutyl]phenyl]-] | 88.6 | 98.2 | 99.9 | 103 | 107 | 108
 |  |  |  | CCCC(c1cccc(NS(=O)(=O)c2ccc(F)cc2)c1)c1c(O)c2c(oc1=O)CCCCCC2 (centres unmarked) [Example 430, Benzenesulfonamide, N-[3-[1-(5,6,7,8,9,10-hexahydro-4-hydroxy-2-oxo-2H-cycloocta[b]pyran-3-yl)butyl]phenyl]-4-fluoro-] | 72.3 | 98.2 | 96.6 | 104 | 105 | 97.3
16.1 | 59.2 | 102 | 118 | O=C(Nc1ccc(C(c2c(O)c3c(oc2=O)CCCCCC3)C2CC2)cc1)OCc1ccccc1 (centres unmarked) [Example 470, Carbamic acid, [4-[cyclopropyl (5,6,7,8,9,10-hexahydro-4-hydroxy-2-oxo-2H-cycloocta[b]pyran-3-yl)methyl]phenyl]-phenylmethyl ester] |  |  |  |  |  | 
37.5 | 75.6 | 102 | 110 | Nc1ccc(C(c2c(O)c3c(oc2=O)CCCCCC3)C2CC2)cc1 (centres unmarked) [Example 471, 3-[(4-Aminophenyl)cyclopropylmethyl]-5,6,7,8,9,10-hexahydro-4-hydroxy-2H-cycloocta[b]pyran-2-one] |  |  |  |  |  | 
 | 15.5 | 82.2 | 110 | N#Cc1ccc(S(=O)(=O)Nc2ccc(C(c3c(O)c4c(oc3=O)CCCCCC4)C3CC3)cc2)cc1 (centres unmarked) [Example 472, Benzenesulfonamide, 4-cyano-N-[4-[cyclopropyl (5,6,7,8,9,10-hexahydro-4-hydroxy-2-oxo-2H-cycloocta [b]pyran-3-yl)methyl]phenyl]-] |  |  |  |  |  | 
